Test results published in patent US9556165B2 (priority 2012, dated 2017).
In brackets after ≈: the same amount, converted by molar mass. Like-named read-outs stand apart in the source and are kept apart here.

Legend:
Assay type in all cases: cell-based
E. cloacae 34654 = test: MIC determination, broth microdilution (CLSI); details: Enterobacter cloacae, 34654, strain 3
S. aureus 133 = test: MIC determination, broth microdilution (CLSI)
S. maltophilia ICB7569 = test: MIC determination, broth microdilution (CLSI); details: Stenotrophomonas maltophilia, ICB7569, strain 10
B. fragilis 6688 = test: MIC determination, broth microdilution (CLSI); details: Bacteroides fragilis, 6688, strain 15; broth microdilution; read-out: MIC strain 15 (B. fragilis 6688)
K. pneumoniae 60 = test: MIC determination, broth microdilution (CLSI); details: Klebsiella pneumoniae, 60, strain 2
M. morganii 126/3048 = test: MIC determination, broth microdilution (CLSI); details: Morganella morganii, 126/3048, strain 5
C. perfringens DSM756 = test: microbe, parasite or virus in culture; details: Clostridium perfringens, DSM756, read-out: MIC strain 16 (C. perfringens DSM756), strain 16; broth microdilution
P. aeruginosa PAO1 = test: MIC determination, broth microdilution (CLSI); details: Pseudomonas aeruginosa, PAO1, strain 6
[1] = test system: P. aeruginosa 2297 (AmpC wt); test: MIC determination, broth microdilution (CLSI); details: Pseudomonas aeruginosa, strain 7
C. freundii K21/3034 = test: MIC determination, broth microdilution (CLSI); details: Citrobacter freundii, K21/3034, strain 4
H. influenzae ATCC 49247 = test: MIC determination, broth microdilution (CLSI); details: Haemophilus influenzae, ATCC49247, strain 12; broth microdilution; read-out: MIC strain 12 (H. influenzae ATCC 49247)
E. coli J62-TEM-3 = test: MIC determination, broth microdilution (CLSI); details: Escherichia coli, J62TEM3, read-out: MIC strain 18 (E. coli J62-TEM-3), strain 18; broth microdilution
S. pneumoniae 113 = test: MIC determination, broth microdilution (CLSI); details: Streptococcus pneumoniae, 113, strain 13; broth microdilution; read-out: MIC strain 13 (S. pneumoniae 113)
[2] = test system: P. aeruginosa 2297-con (AmpC derepressed); test: MIC determination, broth microdilution (CLSI); details: Pseudomonas aeruginosa, read-out: strain 8 MIC, strain 8
A. baumannii ATCC15308 = test: MIC determination, broth microdilution (CLSI); details: Acinetobacter baumannii, ATCC15308, strain 9
E. coli ATCC25922 = test: MIC determination, broth microdilution (CLSI); details: Escherichia coli, ATCC25922, strain 1
Bacteria = test: MIC determination in combination with β-lactamase inhibitors (constant 4 μg/mL)
E. coli J62 = test: MIC determination, broth microdilution (CLSI); details: Escherichia coli, J62, strain 17; broth microdilution; read-out: MIC strain 17 (E. coli J62)
[3] = Staphylococcus aureus, 133, strain 11, read-out: strain 11 MIC
[4] = Staphylococcus aureus, 133, strain 14, broth microdilution, read-out: MIC strain 14 (S. aureus 133)

Compound | MIC (E. cloacae 34654) [µg/mL] | MIC (S. aureus 133; [4]) [µg/mL] | MIC (S. maltophilia ICB7569) [µg/mL] | MIC (B. fragilis 6688) [µg/mL] | MIC (K. pneumoniae 60) [µg/mL] | MIC (M. morganii 126/3048) [µg/mL] | MIC (C. perfringens DSM756) [µg/mL] | MIC (P. aeruginosa PAO1) [µg/mL] | MIC [1] [µg/mL] | MIC (C. freundii K21/3034) [µg/mL] | MIC (H. influenzae ATCC 49247) [µg/mL] | MIC (E. coli J62-TEM-3) [µg/mL] | MIC (S. pneumoniae 113) [µg/mL] | MIC [2] [µg/mL] | MIC (A. baumannii ATCC15308) [µg/mL] | MIC (E. coli ATCC25922) [µg/mL] | MIC strain 19 (E. coli J62-TEM-3 + 4 μg/mL clavulanic acid) (Bacteria) [µg/mL] | MIC strain 20 (E. coli J62-TEM-3 + 4 μg/mL sulbactam) (Bacteria) [µg/mL] | MIC strain 21 (E. coli J62-TEM-3 + 4 μg/mL tazobactam) (Bacteria) [µg/mL] | MIC (E. coli J62) [µg/mL] | also measured
CC1(C)[C@H](NC(=O)/C(=N\OCCOc2ccc(C(=N)N)cc2)c2csc(N)n2)C(=O)N1OS(=O)(=O)O [Example 41, (2Z)-2-(2-Amino-1,3-thiazol-4-yl)-2-{[2-(4-carbamimidoylphenoxy)ethoxy]imino}-N-[(3S)-2,2-dimethyl-4-oxo-1-(sulfooxy)azetidin-3-yl]ethanamide] | 0.25 (≈ 0.462 µM) | 4 (≈ 7.39 µM) | 4 (≈ 7.39 µM) | 2 (≈ 3.69 µM) | 0.5 (≈ 0.923 µM) | 0.25 (≈ 0.462 µM) | 1 (≈ 1.85 µM) | 4 (≈ 7.39 µM) | 4 (≈ 7.39 µM) | 0.125 (≈ 0.231 µM) | ≤ 0.063 | 8 (≈ 14.8 µM) | ≤ 0.063 | 4 (≈ 7.39 µM) | 1 (≈ 1.85 µM) | 0.25 (≈ 0.462 µM) | 0.25 | 0.25 | 0.25 | 0.25 (≈ 0.462 µM) | MIC (S. aureus 133; [3]): ≤ 0.063 µg/mL
CN(C)C(=O)[C@@H]1C[C@H](NC(=N)c2ccc(OCCO/N=C(\C(=O)N[C@@H]3C(=O)N(OS(=O)(=O)O)C3(C)C)c3csc(N)n3)cc2)CN1 [Example 42, (4S)-4-{[{4-[2-({[(1Z)-1-(2-Amino-1,3-thiazol-4-yl)-2-{[(3S)-2,2-dimethyl-4-oxo-1-(sulfooxy)azetidin-3-yl]amino}-2-oxoethylidene]amino}oxy)ethoxy]phenyl}(imino)methyl]amino}-N,N-dimethyl-L-prolinamide] | 2 (≈ 2.93 µM) | 16 (≈ 23.5 µM) | 16 (≈ 23.5 µM) | 8 (≈ 11.7 µM) | 1 (≈ 1.47 µM) | 2 (≈ 2.93 µM) | 4 (≈ 5.87 µM) | 16 (≈ 23.5 µM) | 16 (≈ 23.5 µM) | 1 (≈ 1.47 µM) | 0.25 (≈ 0.367 µM) | 16 (≈ 23.5 µM) | 0.125 (≈ 0.183 µM) | 16 (≈ 23.5 µM) | 8 (≈ 11.7 µM) | 1 (≈ 1.47 µM) | 1 | 1 | 1 | 1 (≈ 1.47 µM) | MIC (S. aureus 133; [3]): ≤ 0.063 µg/mL
CC(=N)N1CC[C@H](NC(=N)c2ccc(OCCO/N=C(\C(=O)N[C@@H]3C(=O)N(OS(=O)(=O)O)C3(C)C)c3csc(N)n3)cc2)C1 [Example 43, (2Z)-2-(2-Amino-1,3-thiazol-4-yl)-N-[(3S)-2,2-dimethyl-4-oxo-1-(sulfooxy)azetidin-3-yl]-2-{[2-(4-{N-[(3S)-1-ethanimidoylpyrrolidin-3-yl]carbamimidoyl}phenoxy)ethoxy]-imino}ethanamide] | 1 (≈ 1.53 µM) | 4 (≈ 6.14 µM) | 32 (≈ 49.1 µM) | 8 (≈ 12.3 µM) | 0.5 (≈ 0.767 µM) | 1 (≈ 1.53 µM) | 2 (≈ 3.07 µM) | 8 (≈ 12.3 µM) | 8 (≈ 12.3 µM) | 0.25 (≈ 0.384 µM) | 0.125 (≈ 0.192 µM) | 8 (≈ 12.3 µM) | ≤ 0.063 | 8 (≈ 12.3 µM) | 0.5 (≈ 0.767 µM) | 0.5 (≈ 0.767 µM) | 0.25 | 0.5 | 0.5 | 0.5 (≈ 0.767 µM) | 
CC1(C)[C@H](NC(=O)/C(=N\OCc2ccc(C(=N)N)cc2)c2csc(N)n2)C(=O)N1OS(=O)(=O)O [Example 57, (2Z)-2-(2-Amino-1,3-thiazol-4-yl)-2-{[(4-carbamimidoylbenzyl)oxy]imino}-N-[(3S)-2,2-dimethyl-4-oxo-1-(sulfooxy)azetidin-3-yl]ethanamide] | 2 (≈ 3.91 µM) | 4 (≈ 7.82 µM) | 32 (≈ 62.6 µM) | 1 (≈ 1.95 µM) | 2 (≈ 3.91 µM) | 1 (≈ 1.95 µM) | 2 (≈ 3.91 µM) | 32 (≈ 62.6 µM) | 32 (≈ 62.6 µM) | 1 (≈ 1.95 µM) | 0.125 (≈ 0.244 µM) | 32 (≈ 62.6 µM) | ≤ 0.063 | 16 (≈ 31.3 µM) | 2 (≈ 3.91 µM) | 1 (≈ 1.95 µM) | 1 | 1 | 2 | 2 (≈ 3.91 µM) | MIC (S. aureus 133; [3]): ≤ 0.063 µg/mL
